Earlier results in publication PMC10036820, “In vivo evaluation of integrin αvβ6-targeting peptide in NSCLC and brain metastasis” (Frontiers in Oncology, 2023).

Experiments:
[1] = test system: HNSCC primary tumor and lymph node metastases; design: method as in PMID 29674419; details: PET/CT, patient with HNSCC; ref [16]
integrin αvβ6 = test system: integrin αvβ6; design: method as in PMID 29674419; details: comparison in words; ref [16]

## GRGDLGRL [SFLAP3, SFTI-based peptide containing latency-associated peptide (GRGDLGRL)]
[1]
  SUVmax, lymph node metastases: 4.1
  SUVmax, primary tumor: 5.1
Integrin αvβ6
  affinity to integrin αvβ6 relative to SFITGv6: better affinity
